Source: patent US10710994B2, “Oxadiazole transient receptor potential channel inhibitors” (Genentech, Inc., priority 2018, dated 2020)
Where two headings read alike, the source gives them in different places.

Target: human TRPA1 channel (Homo sapiens (Human), UniProt O75762)
Assay: hTRPA1 CHO Ca2+ FLIPR Tetra assay: block of cinnamaldehyde induced calcium influx
Format: cell-based
Conditions: CHO cells expressing TRPA1, Hill coefficient fixed to 1.5
How it was run: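 TRPA1-expressing CHO cells loaded with calcium indicator dye (1 h 37° C, then 15 min room temperature) in HBSS/20 mM HEPES pH 7.4/0.02% BSA. IC50 from fits with fixed Hill coefficient.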

[1] = read-out: hTRPA1 IC50 90 min, 90 minutes incubation with compound before cinnamaldehyde (about EC80)
[2] = read-out: hTRPA1 IC50 10 min, 10 minutes incubation with compound before cinnamaldehyde (about EC80)
[3] = hTRPA1 IC50 90 min, 90 minutes incubation with compound before cinnamaldehyde (about EC80)

Chain of human TRPA1 channel (O75762 whole entry): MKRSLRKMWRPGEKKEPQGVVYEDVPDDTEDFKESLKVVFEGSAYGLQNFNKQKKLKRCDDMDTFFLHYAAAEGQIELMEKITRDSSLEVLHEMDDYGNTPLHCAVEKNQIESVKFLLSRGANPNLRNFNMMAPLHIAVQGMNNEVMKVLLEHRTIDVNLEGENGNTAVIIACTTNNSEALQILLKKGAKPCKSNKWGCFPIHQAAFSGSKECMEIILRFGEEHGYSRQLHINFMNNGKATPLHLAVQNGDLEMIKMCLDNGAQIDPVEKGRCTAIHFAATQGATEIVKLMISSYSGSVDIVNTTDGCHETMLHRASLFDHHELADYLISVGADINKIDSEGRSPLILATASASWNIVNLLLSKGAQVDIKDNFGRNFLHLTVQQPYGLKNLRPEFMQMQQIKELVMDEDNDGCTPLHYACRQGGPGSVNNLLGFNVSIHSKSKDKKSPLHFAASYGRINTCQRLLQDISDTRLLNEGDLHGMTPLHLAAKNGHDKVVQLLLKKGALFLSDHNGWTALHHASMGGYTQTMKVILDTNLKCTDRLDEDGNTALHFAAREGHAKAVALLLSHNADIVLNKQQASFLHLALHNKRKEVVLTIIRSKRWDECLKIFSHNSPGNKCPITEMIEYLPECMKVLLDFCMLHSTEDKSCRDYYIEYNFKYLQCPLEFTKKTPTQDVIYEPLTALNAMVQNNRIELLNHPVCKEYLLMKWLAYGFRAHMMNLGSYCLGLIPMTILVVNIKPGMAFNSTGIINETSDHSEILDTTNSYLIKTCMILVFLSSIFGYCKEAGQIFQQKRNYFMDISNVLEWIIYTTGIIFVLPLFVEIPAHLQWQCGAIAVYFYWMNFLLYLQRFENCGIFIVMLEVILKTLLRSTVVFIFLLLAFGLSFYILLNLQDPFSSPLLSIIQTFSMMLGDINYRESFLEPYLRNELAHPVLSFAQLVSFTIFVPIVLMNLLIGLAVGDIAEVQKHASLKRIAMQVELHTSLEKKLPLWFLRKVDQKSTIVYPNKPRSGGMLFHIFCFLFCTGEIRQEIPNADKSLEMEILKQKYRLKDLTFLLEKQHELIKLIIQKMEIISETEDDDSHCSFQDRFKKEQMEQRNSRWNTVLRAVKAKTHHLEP

| IC50 [1] | IC50 [2] | IC50 [3] | IC50 (hTRPA1 IC50 10 min, 10 minutes incubation with compound before cinnamaldehyde (about EC80)) | Compound |
| --- | --- | --- | --- | --- |
| 22 nM |  |  |  | O=c1c2c(ncn1Cc1nc([C@@H]3CO[C@@H](c4ccc(Cl)cc4)C3)no1)CNCC2 [Example 73, 3-((3-((3R,5R)-5-(4-chlorophenyl)tetrahydro-furan-3-yl)-1,2,4-oxadiazol-5-yl)methyl)-5,6,7,8-tetrahydropyrido [3,4-d]pyrimidin-4(3H)-one] |
| 0.73 nM | 2.14 nM |  |  | Cc1ccnc2ncn(Cc3nc([C@@H]4CO[C@@H](c5ccc(Cl)cc5)C4)no3)c(=O)c12 [Example 54, 3-((3-((3R,5R)-5-(4-chlorophenyl)tetrahydro-furan-3-yl)-1,2,4-oxadiazol-5-yl)methyl)-5-methylpyrido[2,3-d] pyrimidin-4(3H)-one] |
| 36 nM | 89.9 nM |  |  | Nc1nc2ncn(Cc3nc([C@@H]4CO[C@@H](c5ccc(F)cc5)C4)no3)c(=O)c2s1 [Example 126, 2-amino-6-((3-((3R,5R)-5-(4-fluorophenyl)tetrahydrofuran-3-yl)-1,2,4-oxadiazol-5-yl)methyl) thiazolo[4,5-d]pyrimidin-7(6H)-one] |
| 6.6 nM | 56.9 nM |  |  | Nc1nn2ncc(Cl)c2c(=O)n1Cc1nc([C@@H]2CO[C@@H](c3ccc(F)cc3)C2)no1 [Example 143, 2-amino-5-chloro-3-((3-((3R,5R)-5-(4-fluorophenyl)tetrahydro-furan-3-yl)-1,2,4-oxadiazol-5-yl)methyl)pyrazolo[5,1-f][1,2,4]triazin-4(3H)-one] |
|  |  | 330 nM |  | Cc1nc(N2CCNCC2)n2ncn(Cc3nc([C@@H]4CO[C@@H](c5ccc(Cl)cc5)C4)no3)c(=O)c12 (racemic) [Example 91, formic acid; 5-methyl-7-piperazin-1-yl-3-[[3-[rac-(3R,5R)-5-(4-chlorophenyl)tetrahydro-furan-3-yl]-1,2,4-oxadiazol-5-yl]methyl] imidazo[5,1-f][1,2,4]triazin-4-one] |
| 82 nM | 107 nM |  |  | O=c1c2cccnc2ncn1Cc1nc([C@@H]2CO[C@@H](c3ccc(F)cc3)C2)no1 [Example 147, 3-((3-((3R,5R)-5-(4-fluorophenyl)tetrahydro-furan-3-yl)-1,2,4-oxadiazol-5-yl)methyl)pyrido[2,3-d]pyrimidin-4(3H)-one] |
| 170 nM | 190 nM |  |  | Cn1cnc2ncn(Cc3nc([C@@H]4CO[C@@H](c5ccc(Cl)cn5)C4)no3)c(=O)c21 [Example 41, 1-((3-((3R,5R)-5-(5-chloropyridin-2-yl)tetrahydrofuran-3-yl)-1,2,4-oxadiazol-5-yl)methyl)-7-methyl-1,7-dihydro-6H-purin-6-one] |
| 11 nM |  |  |  | Cn1c(C(F)F)nc2ncn(Cc3nc([C@@H]4CO[C@@H](c5ccc(Cl)cc5)C4)no3)c(=O)c21 [Example 76, 1-((3-((3R,5R)-5-(4-chlorophenyl)tetrahydro-furan-3-yl)-1,2,4-oxadiazol-5-yl)methyl)-8-(difluoro-methyl)-7-methyl-1,7-dihydro-6H-purin-6-one] |
| 3.1 nM | 7.42 nM |  |  | Cn1cnc2c(C#N)nn(Cc3nc([C@@H]4CO[C@@H](c5ccc(Cl)cc5)C4)no3)c(=O)c21 [Example 131, 6-((3-((3R,5R)-5-(4-chlorophenyl)tetrahydro-furan-3-yl)-1,2,4-oxadiazol-5-yl)methyl)-1-methyl-7-oxo-6,7-dihydro-1H-imidazo[4,5-d]pyridazine-4-carbonitrile] |
| 11 nM | 30.9 nM |  |  | Cn1cnc2nnn(Cc3nc([C@@H]4CO[C@@H](c5ccc(Cl)cc5)C4)no3)c(=O)c21 [Example 141, 3-((3-((3R,5R)-5-(4-chlorophenyl)tetrahydro-furan-3-yl)-1,2,4-oxadiazol-5-yl)methyl)-5-methyl-3,5-dihydro-4H-imidazo[4,5-d][1,2,3] triazin-4-one] |
| 130 nM | 173 nM |  |  | Cn1cnc2ncn(Cc3nc([C@@H]4CO[C@@H](c5ccc(F)c(F)c5)C4)no3)c(=O)c21 [Example 18, 1-((3-((3R,5R)-5-(3,4-difluorophenyl)tetra-hydrofuran-3-yl)-1,2,4-oxadiazol-5-yl)methyl)-7-methyl-1,7-dihydro-6H-purin-6-one] |
| 1.3 nM | 5.02 nM |  |  | Cc1cnn2nc(N)n(Cc3nc([C@@H]4CO[C@@H](c5ccc(F)cc5)C4)no3)c(=O)c12 [Example 3, 2-amino-3-((3-((3R,5R)-5-(4-fluorophenyl)tetrahydrofuran-3-yl)-1,2,4-oxadiazol-5-yl)methyl)-5-methylpyrazolo[5,1-f][1,2,4]triazin-4(3H)-one] |
| 13 nM | 16.6 nM |  |  | O=c1c2cccnc2cnn1Cc1nc([C@@H]2CO[C@@H](c3ccc(F)cc3)C2)no1 [Example 11, 6-((3-((3R,5R)-5-(4-fluorophenyl)tetra-hydrofuran-3-yl)-1,2,4-oxadiazol-5-yl)methyl)pyrido[2,3-d]pyridazin-5(6H)-one] |
| 57 nM | 50.8 nM |  |  | Cn1c(=O)c2c(ncn2Cc2nc([C@@H]3CO[C@@H](c4ccc(Cl)cc4)C3)no2)n(C)c1=O [Example 50, 7-((3-((3R,5R)-5-(4-chlorophenyl)tetrahydro-furan-3-yl)-1,2,4-oxadiazol-5-yl)methyl)-1,3-dimethyl-3,7-dihydro-1H-purine-2,6-dione] |
| 5.7 nM | 16.1 nM |  |  | Cc1ccc([C@H]2C[C@H](c3noc(Cn4cnc5ncn(C)c5c4=O)n3)CO2)cc1 [Example 27, 7-methyl-1-((3-((3R,5R)-5-(p-tolyl)tetrahydrofuran-3-yl)-1,2,4-oxadiazol-5-yl)methyl)-1,7-dihydro-6H-purin-6-one] |
| 150 nM |  |  |  | Cc1nc(NC2CCN(C)CC2)n2ncn(Cc3nc([C@@H]4CO[C@@H](c5ccc(Cl)cc5)C4)no3)c(=O)c12 [Example 78, 3-((3-((3R,5R)-5-(4-chlorophenyl)tetrahydro-furan-3-yl)-1,2,4-oxadiazol-5-yl)methyl)-5-methyl-7-((1-methylpiperidin-4-yl)amino)imidazo[5,1-f] [1,2,4]triazin-4(3H)-one] |
|  |  | 1.8 nM | 6.35 nM | Cn1c(=O)oc2ncn(Cc3nc([C@@H]4CO[C@@H](c5ccc(Cl)cc5)C4)no3)c(=O)c21 (racemic) [Example 153, 1-methyl-6-[[3-[rac-(3R,5R)-5-(4-chlorophenyl)tetrahydro-furan-3-yl]-1,2,4-oxadiazol-5-yl]methyl] oxazolo[5,4-d] pyrimidine-2,7-dione] |
|  |  | 45 nM |  | Cc1nc(C)n2ncn(Cc3nc([C@@H]4CO[C@@H](c5ccc(Cl)cc5)C4)no3)c(=O)c12 (racemic) [Example 97, 5,7-dimethyl-3-[[3-[rac-(3R,5R)-5-(4-chlorophenyl)tetrahydro-furan-3-yl]-1,2,4-oxadiazol-5-yl]methyl] imidazo[5,1-f][1,2,4] triazin-4-one] |
| 1.8 nM | 7.83 nM |  |  | Cn1cnc2ncn(Cc3nc([C@@H]4CO[C@@H](c5ccc(Br)cc5)C4)no3)c(=O)c21 [Example 29, 1-((3-((3R,5R)-5-(4-bromophenyl)tetra-hydrofuran-3-yl)-1,2,4-oxadiazol-5-yl)methyl)-7-methyl-1,7-dihydro-6H-purin-6-one] |
| 27 nM | 46 nM |  |  | Cn1cnc2ncn(Cc3nc([C@@H]4CO[C@@H](c5ccc(C6CC6)cc5)C4)no3)c(=O)c21 [Example 68, 1-((3-((3R,5R)-5-(4-cyclopropylphenyl)tetrahydrofuran-3-yl)-1,2,4-oxadiazol-5-yl)methyl)-7-methyl-1,7-dihydro-6H-purin-6-one] |
| 67 nM | 146 nM |  |  | Cc1cnc(N)n(Cc2nc([C@@H]3CO[C@@H](c4ccc(Cl)cc4)C3)no2)c1=O [Example 128, 2-amino-3-((3-((3R,5R)-5-(4-chlorophenyl)tetra-hydrofuran-3-yl)-1,2,4-oxadiazol-5-yl)methyl)-5-methylpyrimidin-4(3H)-one] |
| 0.42 nM | 3.06 nM |  |  | Cn1cnc2ccn(Cc3nc([C@@H]4CO[C@@H](c5ccc(Cl)cc5)C4)no3)c(=O)c21 [Example 39, 5-((3-((3R,5R)-5-(4-chlorophenyl)tetrahydro-furan-3-yl)-1,2,4-oxadiazol-5-yl)methyl)-3-methyl-3,5-dihydro-4H-imidazo[4,5-c]pyridin-4-one] |
| 4.6 nM | 142 nM |  |  | Cc1ncn2nc(N)n(Cc3nc([C@@H]4CO[C@@H](c5ccc(Cl)cc5)C4)no3)c(=O)c12 [Example 84, 2-amino-3-((3-((3R,5R)-5-(4-chlorophenyl)tetra-hydrofuran-3-yl)-1,2,4-oxadiazol-5-yl)methyl)-5-methylimidazo[5,1-f] [1,2,4]triazin-4(3H)-one] |
